Reference: US12233161B1, “Lipids and lipid nanoparticle formulations” (LONGUIDE BIOPHARMA CORPORATION, priority 2024, dated 2025)

Key:
[1] = tested on: mice; assay: In vivo delivery of FLuc-mRNA lipid nanoparticles in mice, in vivo imaging (IVIS)
How it was run: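 Mice (n=3) received about 75 μL FLuc-mRNA LNP per mouse intramuscularly (rectus femoris), intravenously (tail vein), intraperitoneally or subcutaneously (back). After injection, D-luciferin (200 μL, 15 mg/mL) was given i.p. 10-15 min before IVIS imaging.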

[2] = Particle size and PDI of nucleic acid lipid nanoparticle preparations by dynamic light scattering; type: physicochemical
How it was run: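 LNP solution (about 0.04 mg/mL mRNA before dilution) was diluted in ultrapure water and mixed by gentle pipetting. Particle size and PDI were then measured by dynamic light scattering.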

[3] = Potential characterization of nucleic acid lipid nanoparticle preparations; type: physicochemical
How it was run: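 Nanoparticles (about 0.04 mg/mL mRNA) were diluted in ultrapure water for Malvern ZEN3700 measurement: 20 μL into 780 μL for potential alone, or 27.5 μL into 200 μL for DLS particle size followed by addition of 600 μL water for potential.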

[4] = DMG-PEG2000:DSPC:Chol:Lipid 1.50:11.50:17.00:70.00, N/P 30, IV, liver
[5] = DMG-PEG2000:DSPC:Chol:Lipid 1.50:11.50:17.00:70.00, N/P 30, IV, lung
[6] = DMG-PEG2000:DSPC:Chol:Lipid 1.50:11.50:17.00:70.00, N/P 30, IV, spleen
[7] = DMG-PEG2000:DSPC:Chol:Lipid 1.50:11.50:37.00:50.00, N/P 30, IV, liver
[8] = DMG-PEG2000:DSPC:Chol:Lipid 1.50:11.50:37.00:50.00, N/P 30, IV, lung
[9] = DMG-PEG2000:DSPC:Chol:Lipid 1.50:11.50:37.00:50.00, N/P 30, IV, spleen
[10] = DMG-PEG2000:DSPC:Chol:Lipid 1.50:11.50:57.00:30.00, N/P 30, IV, liver
[11] = DMG-PEG2000:DSPC:Chol:Lipid 1.50:11.50:57.00:30.00, N/P 30, IV, lung
[12] = DMG-PEG2000:DSPC:Chol:Lipid 1.50:11.50:57.00:30.00, N/P 30, IV, spleen
[13] = DMG-PEG2000:DSPC:Chol:Lipid 2.50:11.50:51.00:35.00, N/P 18, IV, liver
[14] = DMG-PEG2000:DSPC:Chol:Lipid 2.50:11.50:51.00:35.00, N/P 18, IV, lung
[15] = DMG-PEG2000:DSPC:Chol:Lipid 2.50:11.50:51.00:35.00, N/P 18, IV, spleen
[16] = DMG-PEG2000:DSPC:Chol:Lipid 1.50:11.50:17.00:70.00, N/P 30, mRNA LNP
[17] = DMG-PEG2000:DSPC:Chol:Lipid 1.50:11.50:37.00:50.00, N/P 30, mRNA LNP
[18] = DMG-PEG2000:DSPC:Chol:Lipid 1.50:11.50:57.00:30.00, N/P 30, mRNA LNP
[19] = DMG-PEG2000:DSPC:Chol:Lipid 1.71:12.98:45.31:40.00, N/P 30, mRNA LNP
[20] = DMG-PEG2000:DSPC:Chol:Lipid 2.50:11.50:51.00:35.00, N/P 18, mRNA LNP
[21] = DMG-PEG2000:DSPC:Chol:compound 1.50:30.00:33.50:35.00, N/P 9
[22] = DMG-PEG2000:DSPC:Chol:compound 1.50:30.00:48.50:20.00, N/P 9
[23] = DMG-PEG2000:DSPC:Chol:compound 1.50:30.00:58.50:10.00, N/P 9
[24] = DMG-PEG2000:DSPC:Chol:compound 1.50:30.00:63.50:5.00, N/P 9

For `CCCCCCCCCCCCOC(=O)C(O)CN(CCCN(C)CCCN(CC(O)C(=O)OCCCCCCCCCCCC)CC(O)C(=O)OCCCCCCCCCCCC)CC(O)C(=O)OCCCCCCCCCCCC` (centres unmarked) [Compound L0261], the IVIS ([1]; DMG-PEG2000:DSPC:Chol:Lipid 1.50:11.50:17.00:70.00, N/P 30, IV, body) was 4.64 × 10^7, the “% of organ targeting” value [1, 4] was 1.68% and the IVIS [1, 4] was 1.65 × 10^6. For the same compound, the “% of organ targeting” value [1, 5] was 91.29%, the IVIS [1, 5] was 8.93 × 10^7 and the “% of organ targeting” value [1, 6] was 7.03%. The IVIS [1, 6] was 6.88 × 10^6, the IVIS ([1]; DMG-PEG2000:DSPC:Chol:Lipid 1.50:11.50:37.00:50.00, N/P 30, IV, body) was 1.09 × 10^8 and the “% of organ targeting” value [1, 7] was 30.20%. For the same compound, the IVIS [1, 7] was 1.83 × 10^7, the “% of organ targeting” value [1, 8] was 30.87% and the IVIS [1, 8] was 1.87 × 10^7. For the same compound, the “% of organ targeting” value [1, 9] was 38.93%, the IVIS [1, 9] was 2.36 × 10^7 and the IVIS ([1]; DMG-PEG2000:DSPC:Chol:Lipid 1.50:11.50:57.00:30.00, N/P 30, IV, body) was 5.88 × 10^7. For the same compound, the “% of organ targeting” value [1, 10] was 17.84%, the IVIS [1, 10] was 1.20 × 10^7 and the “% of organ targeting” value [1, 11] was 7.50%. For the same compound, the IVIS [1, 11] was 5.06 × 10^6, the “% of organ targeting” value [1, 12] was 74.66% and the IVIS [1, 12] was 5.03 × 10^7. For the same compound, the IVIS ([1]; DMG-PEG2000:DSPC:Chol:Lipid 1.71:12.98:45.31:40.00, N/P 30, IM, whole body scan) was 5.24 × 10^6, the IVIS ([1]; DMG-PEG2000:DSPC:Chol:Lipid 2.50:11.50:51.00:35.00, N/P 18, IV, body) was 4.72 × 10^7 and the “% of organ targeting” value [1, 13] was 6.56%. The IVIS [1, 13] was 3.81 × 10^6, the “% of organ targeting” value [1, 14] was 1.88% and the IVIS [1, 14] was 1.09 × 10^6. For the same compound, the “% of organ targeting” value [1, 15] was 91.57%, the IVIS [1, 15] was 5.33 × 10^7 and the IVIS ([1]; IV, body, DMG-PEG2000:DSPC:Chol:compound 1.50:30.00:33.50:35.00, N/P 9, Fluc-mRNA) was 2.66E+07. It also gave an IVIS ([1]; IV, body, DMG-PEG2000:DSPC:Chol:compound 1.50:30.00:48.50:20.00, N/P 9, Fluc-mRNA) of 1.18E+07, an IVIS ([1]; IV, body, DMG-PEG2000:DSPC:Chol:compound 1.50:30.00:58.50:10.00, N/P 9, Fluc-mRNA) of 2.03E+06 and an IVIS ([1]; IV, body, DMG-PEG2000:DSPC:Chol:compound 1.50:30.00:63.50:5.00, N/P 9, Fluc-mRNA) of 1.06E+06. The “% of organ targeting” value ([1]; IV, liver, DMG-PEG2000:DSPC:Chol:compound 1.50:30.00:33.50:35.00, N/P 9) was 3.86%, the IVIS ([1]; IV, liver, DMG-PEG2000:DSPC:Chol:compound 1.50:30.00:33.50:35.00, N/P 9, Fluc-mRNA) was 1.00E+06 and the “% of organ targeting” value ([1]; IV, liver, DMG-PEG2000:DSPC:Chol:compound 1.50:30.00:48.50:20.00, N/P 9) was 8.55%. For the same compound, the IVIS ([1]; IV, liver, DMG-PEG2000:DSPC:Chol:compound 1.50:30.00:48.50:20.00, N/P 9, Fluc-mRNA) was 1.65E+06, the “% of organ targeting” value ([1]; IV, liver, DMG-PEG2000:DSPC:Chol:compound 1.50:30.00:58.50:10.00, N/P 9) was 36.36% and the IVIS ([1]; IV, liver, DMG-PEG2000:DSPC:Chol:compound 1.50:30.00:58.50:10.00, N/P 9, Fluc-mRNA) was 7.14E+05. The “% of organ targeting” value ([1]; IV, liver, DMG-PEG2000:DSPC:Chol:compound 1.50:30.00:63.50:5.00, N/P 9) was 26.05%, the IVIS ([1]; IV, liver, DMG-PEG2000:DSPC:Chol:compound 1.50:30.00:63.50:5.00, N/P 9, Fluc-mRNA) was 1.91E+05 and the “% of organ targeting” value ([1]; IV, lung, DMG-PEG2000:DSPC:Chol:compound 1.50:30.00:33.50:35.00, N/P 9) was 2.02%. The IVIS ([1]; IV, lung, DMG-PEG2000:DSPC:Chol:compound 1.50:30.00:33.50:35.00, N/P 9, Fluc-mRNA) was 5.23E+05, the “% of organ targeting” value ([1]; IV, lung, DMG-PEG2000:DSPC:Chol:compound 1.50:30.00:48.50:20.00, N/P 9) was 4.05% and the IVIS ([1]; IV, lung, DMG-PEG2000:DSPC:Chol:compound 1.50:30.00:48.50:20.00, N/P 9, Fluc-mRNA) was 7.80E+05. For the same compound, the “% of organ targeting” value ([1]; IV, lung, DMG-PEG2000:DSPC:Chol:compound 1.50:30.00:58.50:10.00, N/P 9) was 4.39%, the IVIS ([1]; IV, lung, DMG-PEG2000:DSPC:Chol:compound 1.50:30.00:58.50:10.00, N/P 9, Fluc-mRNA) was 8.62E+04 and the “% of organ targeting” value ([1]; IV, lung, DMG-PEG2000:DSPC:Chol:compound 1.50:30.00:63.50:5.00, N/P 9) was 7.91%. For the same compound, the IVIS ([1]; IV, lung, DMG-PEG2000:DSPC:Chol:compound 1.50:30.00:63.50:5.00, N/P 9, Fluc-mRNA) was 5.78E+04, the “% of organ targeting” value ([1]; IV, spleen, DMG-PEG2000:DSPC:Chol:compound 1.50:30.00:33.50:35.00, N/P 9) was 94.12% and the IVIS ([1]; IV, spleen, DMG-PEG2000:DSPC:Chol:compound 1.50:30.00:33.50:35.00, N/P 9, Fluc-mRNA) was 2.44E+07. The “% of organ targeting” value ([1]; IV, spleen, DMG-PEG2000:DSPC:Chol:compound 1.50:30.00:48.50:20.00, N/P 9) was 87.40%, the IVIS ([1]; IV, spleen, DMG-PEG2000:DSPC:Chol:compound 1.50:30.00:48.50:20.00, N/P 9, Fluc-mRNA) was 1.68E+07 and the “% of organ targeting” value ([1]; IV, spleen, DMG-PEG2000:DSPC:Chol:compound 1.50:30.00:58.50:10.00, N/P 9) was 59.25%. For the same compound, the IVIS ([1]; IV, spleen, DMG-PEG2000:DSPC:Chol:compound 1.50:30.00:58.50:10.00, N/P 9, Fluc-mRNA) was 1.16E+06, the “% of organ targeting” value ([1]; IV, spleen, DMG-PEG2000:DSPC:Chol:compound 1.50:30.00:63.50:5.00, N/P 9) was 66.04% and the IVIS ([1]; IV, spleen, DMG-PEG2000:DSPC:Chol:compound 1.50:30.00:63.50:5.00, N/P 9, Fluc-mRNA) was 4.83E+05. The “tissue-targeting specificity (lung vs spleen depending on molar percentage of compound)” value ([1]; certain formulations, Table 2) was “strong tissue-targeting specificity”, the PDI [2, 16] was 0.17 ± 0.01 and the Particle size [2, 16] was 118.13 ± 0.40 nm. For the same compound, the PDI [2, 17] was 0.20 ± 0.01, the Particle size [2, 17] was 130.87 ± 0.87 nm and the PDI [2, 18] was 0.13 ± 0.02. It also gave a Particle size [2, 18] of 88.09 ± 0.52 nm, a PDI [2, 19] of 0.24 ± 0.02 and a Particle size [2, 19] of 94.33 ± 1.52 nm. For the same compound, the PDI [2, 20] was 0.17 ± 0.01, the Particle size [2, 20] was 99.13 ± 0.78 nm and the PDI [2, 21] was 0.20. The “Particle size (nm)” value [2, 21] was 141.40 nm, the PDI [2, 22] was 0.21 and the “Particle size (nm)” value [2, 22] was 107.23 nm. For the same compound, the PDI [2, 23] was 0.21, the “Particle size (nm)” value [2, 23] was 136.30 nm and the PDI [2, 24] was 0.16. For the same compound, the “Particle size (nm)” value [2, 24] was 128.87 nm, the “Zeta potential (mV)” value [3, 21] was 16.03 mV and the “Zeta potential (mV)” value [3, 22] was 14.53 mV. For the same compound, the “Zeta potential (mV)” value [3, 23] was 15.47 mV and the “Zeta potential (mV)” value [3, 24] was 16.57 mV.
